Test results as given in patent US12637410B2, “Vesicular monoamine transporter-2 ligands and their use in the treatment of psychostimulant abuse” (priority 2016, dated 2026).
Where two headings read alike, the source gives them in different places.

How the values were obtained:
VMAT2 = molecular target: T1, VMAT2 (Rattus norvegicus, UniProt Q01827); test: [3H]Dopamine ([3H]DA) uptake assay, vesicular preparation; format: biochemical
T1 construct: from tissue; host or cells: rat striatum, isolated synaptic vesicles
T1 sequence (Q01827 whole entry): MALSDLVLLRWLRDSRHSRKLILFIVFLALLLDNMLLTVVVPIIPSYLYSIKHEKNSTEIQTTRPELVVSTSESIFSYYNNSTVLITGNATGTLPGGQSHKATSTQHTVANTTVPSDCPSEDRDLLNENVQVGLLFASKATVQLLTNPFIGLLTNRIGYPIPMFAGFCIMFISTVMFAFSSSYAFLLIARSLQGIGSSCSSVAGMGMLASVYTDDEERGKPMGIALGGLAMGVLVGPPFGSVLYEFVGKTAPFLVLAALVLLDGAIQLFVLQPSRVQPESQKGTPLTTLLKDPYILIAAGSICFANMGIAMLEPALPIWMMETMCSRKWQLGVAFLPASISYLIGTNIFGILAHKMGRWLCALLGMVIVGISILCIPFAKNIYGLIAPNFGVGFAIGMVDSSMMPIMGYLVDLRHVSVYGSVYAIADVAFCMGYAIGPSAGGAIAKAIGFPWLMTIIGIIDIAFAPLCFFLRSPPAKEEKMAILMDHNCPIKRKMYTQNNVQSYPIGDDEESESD

hERG channel = molecular target: T2, hERG channel (Homo sapiens, UniProt Q12809); test: [3H]Dofetilide binding assay, HEK-293 cell membrane preparation; conditions: hERG Binding: Mean Ki (nM)
T2 construct: purchased; host or cells: HEK-293 cells stably expressing hERG (membranes)
T2 sequence (Q12809 whole entry): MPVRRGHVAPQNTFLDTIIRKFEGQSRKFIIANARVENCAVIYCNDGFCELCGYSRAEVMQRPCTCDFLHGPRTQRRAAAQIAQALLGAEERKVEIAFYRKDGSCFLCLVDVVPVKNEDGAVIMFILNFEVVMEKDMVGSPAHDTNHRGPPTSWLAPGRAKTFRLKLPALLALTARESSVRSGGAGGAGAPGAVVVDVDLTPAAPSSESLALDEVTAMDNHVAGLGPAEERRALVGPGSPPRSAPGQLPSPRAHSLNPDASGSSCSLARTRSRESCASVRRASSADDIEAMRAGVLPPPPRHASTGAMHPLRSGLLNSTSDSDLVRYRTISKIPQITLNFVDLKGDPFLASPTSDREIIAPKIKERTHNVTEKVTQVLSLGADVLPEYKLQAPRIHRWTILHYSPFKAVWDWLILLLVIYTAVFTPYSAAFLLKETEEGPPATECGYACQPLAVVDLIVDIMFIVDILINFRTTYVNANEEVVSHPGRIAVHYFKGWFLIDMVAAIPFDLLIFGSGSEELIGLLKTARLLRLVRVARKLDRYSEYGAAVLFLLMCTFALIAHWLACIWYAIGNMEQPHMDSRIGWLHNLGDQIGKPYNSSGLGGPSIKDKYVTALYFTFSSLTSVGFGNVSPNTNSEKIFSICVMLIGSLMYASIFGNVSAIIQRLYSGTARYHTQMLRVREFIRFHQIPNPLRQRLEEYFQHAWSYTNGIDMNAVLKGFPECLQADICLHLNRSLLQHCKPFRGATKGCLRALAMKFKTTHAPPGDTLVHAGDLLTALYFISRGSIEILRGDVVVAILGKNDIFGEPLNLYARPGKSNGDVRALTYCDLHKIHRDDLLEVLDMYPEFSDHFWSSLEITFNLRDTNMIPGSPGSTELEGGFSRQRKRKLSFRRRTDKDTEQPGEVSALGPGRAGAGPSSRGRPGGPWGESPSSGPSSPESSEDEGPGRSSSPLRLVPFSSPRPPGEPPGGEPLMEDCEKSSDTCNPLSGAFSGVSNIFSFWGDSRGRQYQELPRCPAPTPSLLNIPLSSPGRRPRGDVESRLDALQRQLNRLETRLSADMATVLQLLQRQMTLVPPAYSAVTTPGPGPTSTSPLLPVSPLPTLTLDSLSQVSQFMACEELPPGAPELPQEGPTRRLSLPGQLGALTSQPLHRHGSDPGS
Protocol: Membranes were suspended in assay buffer (50 mM Tris, 10 mM KCl, 1 mM MgCl2, pH 7.4) prior to the experiment. […] Nonspecific binding was determined in the presence of amitriptyline (1 mM). Samples were incubated for 1 hr. at 24° C., followed by rapid filtration.

[1] = Microsomal assays, rat liver microsomes; conditions: for CLint scaled at 0.08 µM: female, Sprague-Dawley, rat, pH 7.4; for Microsomal stability assays: Species/Half-life (hr) Rat: rat liver microsomes
Protocol: Each plate holds triplicate samples of two controls (0.4 mM) and up to 14 compounds (0.08 mM) in rat and human liver microsomes. Aliquots of each well of the plate (175 μl of each well) were transferred from the master plate into 5 assay plates. […] NADPH regenerating system solution A (6.05 ml, Fisher Scientific, #NC9255727) was combined with NADPH regenerating system solution B (1.21 ml, Fisher Scientific, #NC9016235) in potassium phosphate buffer (15.8 ml, 0.1 M, pH 7.4, 37° C.). The resulting NADPH solution (43.8 μl) was added to each well of all the 96-well assay plates and mixed with pipette briefly making the final protein and compound concentrations respectively: 0.5 mg/ml, 0.08 μM (0.4 μM for controls). Plates were sealed, and all plates except the 0-hr plate were incubated at 37° C., shaken at a speed of 60 rpm. A single assay plate was tested at each time point: 0.5 hr, 1 hr, 2 hr, and 4 hr. At each time point, 437.5 μL of pre-cooled internal standard was added each well of the plate to quench the reaction. […] 120 μl supernatant was transferred to a 96-well plate, centrifuged again and analyzed by UPLC-MS (Waters Inc., Milford, MA). The compounds and internal standard were detected by selected ion recording (SIR).
The amount of material was measured as a ratio of peak area to the internal standard and graphed. Using the slope from the initial linear portion of this curve, the degradation rate constant is calculated using equation [1]. The rate constant was then used to calculate the compounds half-life in plasma using equation [2].

[2] = molecular target: dopamine transporter (DAT) (Rattus norvegicus, UniProt P23977); test: [3H]DA uptake assay, synaptosomal preparation
Chain of dopamine transporter (DAT) (P23977 whole entry): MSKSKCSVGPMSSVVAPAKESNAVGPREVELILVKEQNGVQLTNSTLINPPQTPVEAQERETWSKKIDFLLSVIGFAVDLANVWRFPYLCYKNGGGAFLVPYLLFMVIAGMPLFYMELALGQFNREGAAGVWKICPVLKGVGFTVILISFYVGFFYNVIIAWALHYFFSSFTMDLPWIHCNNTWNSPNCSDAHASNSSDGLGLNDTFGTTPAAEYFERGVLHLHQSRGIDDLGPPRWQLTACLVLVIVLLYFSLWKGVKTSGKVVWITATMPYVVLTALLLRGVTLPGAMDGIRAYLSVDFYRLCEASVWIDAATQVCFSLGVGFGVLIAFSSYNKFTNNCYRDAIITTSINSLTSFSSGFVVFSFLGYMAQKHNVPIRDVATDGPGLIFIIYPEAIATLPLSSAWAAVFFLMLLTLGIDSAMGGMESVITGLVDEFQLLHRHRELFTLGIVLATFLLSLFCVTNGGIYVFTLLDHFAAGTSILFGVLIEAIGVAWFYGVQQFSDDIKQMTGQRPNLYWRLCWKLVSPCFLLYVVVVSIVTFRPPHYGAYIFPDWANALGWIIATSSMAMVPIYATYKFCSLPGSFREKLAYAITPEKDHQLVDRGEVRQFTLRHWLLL
Protocol: [^3H]DA and [3H]5-HT uptake into striatal synaptosomes was determined to evaluate compound inhibition of the dopamine transporter (DAT) and the serotonin transporter (SERT), respectively. […] Assays were performed in duplicate in a total volume of 500 μL (for DAT assays) or 250 μL (for SERT assays). Aliquots of the synaptosomal suspension (25 μL for DAT, 50 μL for SERT) were added to tubes containing assay buffer and various concentrations of analog (1 nM-100 μM), and incubated at 34° C. for 5 min. Nonspecific uptake was determined in the presence of nomifensine (10 μM) for DAT assays or fluoxetine (10 μM) for SERT assays. […] Samples were placed on ice, and 50 μL of 0.1 μM [^3H]DA (for DAT assays) or 25 μL of 0.1 μM [^3H]5-HT (for SERT assays) was added to each tube, and incubated for 10 min at 34° C. Reactions were terminated by addition of 3 mL of ice-cold assay buffer and subsequent filtration and radioactivity retained by the filters was determined by liquid scintillation spectrometry (Tri-Carb 2100TR liquid scintillation analyzer; PerkinElmer Life and Analytical Sciences, Boston, MA).

[3] = [3H]DA uptake, rat vesicular preparation, mean of n>=3 unless N given, read-out: VMAT2 (rat) Inhibition: Mean Ki
[4] = [3H]dofetilide binding, HEK-293 membranes, mean of n>=3 unless N given
[5] = Table 4, mean, minimally n = 3, read-out: VMAT2 (rat) Inhibition: Mean Ki

SMILES	Ki (VMAT2) [nM]	Ki (hERG channel; [4]) [nM]	also measured
CC(Cc1ccc2nccnc2c1)NCCCc1ccc(F)cc1 (stereo not drawn) [Compound 308]	13	–	Ki (hERG channel; Table 4, mean, minimally n = 3): 1900 nM; CLint scaled at 0.08 µM [1]: 56 mL/min/kg; Ki [2]: 2930 nM
CC(Cc1ccc(F)c(F)c1)NCCCc1ccc(C(N)=O)c(F)c1 (stereo not drawn) [Compound 299]	29	–	Ki (hERG channel; Table 4, mean, minimally n = 3): 12100 nM; CLint scaled at 0.08 µM [1]: 19 mL/min/kg; Ki [2]: 4210 nM
C[C@H](Cc1ccccc1)ONCCc1ccccc1 [Compound 296]	20000	–	–
FCC(Cc1ccccc1)NCCCc1ccc(F)cc1 (stereo not drawn) [Compound 101]	–	–	Ki (VMAT2; [3]): 17 nM
CC(Cc1ccc(F)c(F)c1)NCCCc1ccc(OC(C)C)cc1 (stereo not drawn) [Compound 259]	104	818	–
CC(Cc1ccccc1)N(CCCc1ccc(O)cc1)C(=O)OC(C)(C)C (stereo not drawn) [Compound 288]	> 100000	–	–
CC(C)C(Cc1ccc(F)cc1)NCCCc1ccc(Br)cc1 (stereo not drawn) [Compound 140]	–	–	Microsomal stability assays: Species/Half-life (hr) Rat [1]: 0.1 h
O=C(O)C(Cc1ccc(F)cc1)NCCCc1ccc(Br)cc1 (stereo not drawn) [Compound 286]	3130	–	–
CC(Cc1ccc(C(N)=O)cc1)NCCCc1ccc(F)cc1 (stereo not drawn) [Compound 304]	–	–	Ki (VMAT2; [5]): 31 nM; Ki (hERG channel; Table 4, mean, minimally n = 3): 1610 nM; CLint scaled at 0.08 µM [1]: 41 mL/min/kg; Ki [2]: 5570 nM
CC(Cc1c[nH]c2ccccc12)NCCCc1ccc(F)cc1 (stereo not drawn) [Compound 246]	66	731	–
CC(Cc1ccc(F)c(F)c1)NCCCc1ccc2nccnc2c1 (stereo not drawn) [Compound 232]	52	3300	Ki (hERG channel; Table 4, mean, minimally n = 3): 2590 nM; CLint scaled at 0.08 µM [1]: 159 mL/min/kg; Ki [2]: 3580 nM
CSc1ccc(CCCNC(C)Cc2ccc(F)c(F)c2)cc1 (stereo not drawn) [Compound 261]	32	316	–
CC(Cc1ccc(F)c(F)c1)NCCCc1ccnc(C(F)(F)F)c1 (stereo not drawn) [Compound 247]	349	–	–
CC(Cc1ccc(F)c(F)c1)NCCCc1ccc2cn[nH]c2c1 (stereo not drawn) [Compound 233]	33	483	–
CC(Cc1cccc(C(N)=O)c1)NCCCc1ccc(F)cc1 (stereo not drawn) [Compound 301]	–	–	Ki (VMAT2; [5]): 43 nM; Ki (hERG channel; Table 4, mean, minimally n = 3): 1310 nM; CLint scaled at 0.08 µM [1]: 22 mL/min/kg; Ki [2]: 6070 nM
CC(Cc1ccccc1)N(CCCc1ccc(I)cc1)C(=O)OCc1ccccc1 (stereo not drawn) [Compound 290]	–	–	Ki (VMAT2; [3]): 4800 nM
COc1ccc(CCCNC(C)Cc2ccncc2)cc1 (stereo not drawn) [Compound 172]	–	–	Microsomal stability assays: Species/Half-life (hr) Rat [1]: 0.1 h
CC(Cc1ccc(F)cc1)NCCCc1ccc2[nH]ccc2c1 (stereo not drawn) [Compound 56]	–	1260	Microsomal stability assays: Species/Half-life (hr) Rat [1]: 0.1 h
CC(Cc1ccc2nccnc2c1)NCCCc1ccc(S(N)(=O)=O)cc1 (stereo not drawn) [Compound 305]	46	–	Ki (hERG channel; Table 4, mean, minimally n = 3): 4390 nM; CLint scaled at 0.08 µM [1]: 43 mL/min/kg; Ki [2]: 20500 nM
CC(Cc1ccc(F)c(F)c1)NCCCc1cccc(C(F)(F)F)c1 (stereo not drawn) [Compound 250]	39	4100	–
CC(Cc1ccc(F)c(F)c1)NCCCc1ccc(C(N)=O)c(Cl)c1 (stereo not drawn) [Compound 297]	21	–	Ki (hERG channel; Table 4, mean, minimally n = 3): 5020 nM; CLint scaled at 0.08 µM [1]: < 17 mL/min/kg; Ki [2]: 5820 nM
CC(Cc1ccc(F)cc1)NCCCc1ccc(NS(C)(=O)=O)cc1 (stereo not drawn) [Compound 275]	53	308	–
CC(Cc1ccc(Br)cc1)NCCCc1ccc(N)cc1 (stereo not drawn) [Compound 240]	48	1130	–
CC(Cc1ccc(F)cc1)NCCCc1cccc(N)c1 (stereo not drawn) [Compound 241]	106	6390	–

SMILES	Ki (VMAT2) [nM]	Ki (hERG channel; [4]) [nM]	also measured
CC(Cc1ccc(F)c(F)c1)NCCCc1ccc(C(C)(C)C)cc1 (stereo not drawn) [Compound 264]	209	2190	–
FCC(Cc1ccccc1)NCCCc1ccccc1 (stereo not drawn) [Compound 98]	–	–	Microsomal stability assays: Species/Half-life (hr) Rat [1]: 0.1 h
CC(Cc1ccc(F)c(F)c1)NCCCc1cc(Cl)cc(Cl)c1 (stereo not drawn) [Compound 270]	38	1500	–
NC(Cc1cn(Cc2ccccc2)cn1)C(=O)OCC(Cc1ccc(F)cc1)NCCCc1ccc(Br)cc1 (stereo not drawn) [Compound 287]	533	–	–
CC(Cc1ccc(F)cc1)NCCCc1ccccn1 (stereo not drawn) [Compound 279]	200	2400	–
CC(Cc1ccc(F)c(F)c1)NCCCc1ccc(C(=O)O)cc1 (stereo not drawn) [Compound 257]	6480	> 34700	–
CC(Cc1ccc(F)c(F)c1)NCCCc1ccccc1Cl (stereo not drawn) [Compound 268]	28	233	–
CC(Cc1ccc(F)c(F)c1)NCCCc1ccc(Cl)c(Cl)c1 (stereo not drawn) [Compound 272]	57	462	–
CC(Cc1cccc(NC(N)=O)c1)NCCCc1ccc(F)cc1 (stereo not drawn) [Compound 306]	9	–	Ki (hERG channel; Table 4, mean, minimally n = 3): 2750 nM; CLint scaled at 0.08 µM [1]: 47 mL/min/kg; Ki [2]: 2970 nM
CC(Cc1ccc(F)c(F)c1)NCCCc1cccc2ncoc12 (stereo not drawn) [Compound 255]	54	3370	–
CC(Cc1ccc(F)c(F)c1)NCCCc1ccccc1-c1cccnc1 (stereo not drawn) [Compound 282]	88	364	–
CC(Cc1ccccc1)ONCCc1ccccc1 (racemic) [Compound 295]	41300	–	–
CC(Cc1ccc(F)c(F)c1)NCCCc1ccc2ncsc2c1 (stereo not drawn) [Compound 252]	67	1580	–
CC(C)C(Cc1ccc(F)cc1)NCCCc1ccccc1 (stereo not drawn) [Compound 136]	460	–	–
CC(Cc1ccc(F)c(F)c1)NCCCc1cccc(S(N)(=O)=O)c1 (stereo not drawn) [Compound 236]	99	2010	–
CC(Cc1ccc(F)c(F)c1)NCCCc1ccc2c(c1)[nH]c(=O)n2C (stereo not drawn) [Compound 254]	187	–	–
CC(Cc1ccc2[nH]cnc2c1)NCCCc1ccc(F)cc1 (stereo not drawn) [Compound 303]	22	–	Ki (hERG channel; Table 4, mean, minimally n = 3): 2900 nM; CLint scaled at 0.08 µM [1]: 40 mL/min/kg; Ki [2]: 4770 nM
CC(Cc1ccc(NC(N)=O)cc1)NCCCc1ccc(F)cc1 (stereo not drawn) [Compound 302]	34	–	Ki (hERG channel; Table 4, mean, minimally n = 3): 7110 nM; CLint scaled at 0.08 µM [1]: 30 mL/min/kg; Ki [2]: 3130 nM
CC(Cc1ccccc1)N(CCCc1ccc([N+](=O)[O-])cc1)C(=O)OCc1ccccc1 (stereo not drawn) [Compound 289]	2970	–	–
CC(Cc1ccc([N+](=O)[O-])cc1)NCCCc1ccc(Br)cc1 (stereo not drawn) [Compound 121]	–	–	Microsomal stability assays: Species/Half-life (hr) Rat [1]: 0.1 h
CC(Cc1ccc(F)c(F)c1)NCCCc1ccc(NS(C)(=O)=O)cc1 (stereo not drawn) [Compound 274]	45	220	–
CC(Cc1ccc(F)c(F)c1)NCCCc1ccccc1-c1ccnn1C (stereo not drawn) [Compound 245]	136	2240	–
CC(Cc1ccc(F)c(F)c1)NCCCc1ccc2ncoc2c1 (stereo not drawn) [Compound 256]	50	4880	–
CC(Cc1ccc(F)c(F)c1)NCCCc1cccc(N(C)C)c1 (stereo not drawn) [Compound 266]	171	2460	–

SMILES	Ki (VMAT2) [nM]	Ki (hERG channel; [4]) [nM]	also measured
CC(Cc1ccc(F)c(F)c1)NCCCc1cccc(Cl)c1 (stereo not drawn) [Compound 267]	19	1000	–
CC(Cc1ccc(F)c(F)c1)NCCCc1cccc(-c2ccnn2C)c1 (stereo not drawn) [Compound 281]	51	592	–
CC(Cc1ccc(F)cc1)NCCCc1cccnc1 (stereo not drawn) [Compound 278]	98	3980	–
CC(Cc1ccc(F)cc1)NCCCc1ccc(N(C)C)cc1 (stereo not drawn) [Compound 156]	–	49000	–
CC(Cc1ccc(F)c(F)c1)NCCCc1cccc(N)c1 (stereo not drawn) [Compound 265]	202	5560	–
CC(Cc1ccc(F)cc1)NCCCc1ccc(C(N)=O)cc1 (stereo not drawn) [Compound 298]	–	–	Ki (VMAT2; [5]): 16 nM; Ki (hERG channel; Table 4, mean, minimally n = 3): 12400 nM; CLint scaled at 0.08 µM [1]: 18 mL/min/kg; Ki [2]: 3980 nM
CC(Cc1ccc(F)c(F)c1)NCCCc1ccc(Cl)c(C(F)(F)F)c1 (stereo not drawn) [Compound 273]	538	1220	–
CC(Cc1ccc(F)cc1)NCCCc1ccc([N+](=O)[O-])c(C(F)(F)F)c1 (stereo not drawn) [Compound 251]	55	535	–
CC(Cc1ccc(F)c(F)c1)NCCCc1ccccc1N (stereo not drawn) [Compound 238]	220	3250	–
CC(Cc1ccc(F)cc1)NCCCc1ccccc1 (stereo not drawn) [Compound 126]	–	–	Microsomal stability assays: Species/Half-life (hr) Rat [1]: 0.1 h
CC(Cc1ccc(F)cc1)NCCCc1c[nH]c2ccccc12 (stereo not drawn) [Compound 91]	–	–	Microsomal stability assays: Species/Half-life (hr) Rat [1]: 0.1 h
CC(Cc1ccc(F)cc1)NCCCc1ccc(Cl)c(N)c1 (stereo not drawn) [Compound 242]	38	1440	–
CC(Cc1ccc(NC=O)cc1)NCCCc1ccc(F)cc1 (stereo not drawn) [Compound 88]	12	–	–
CC(=O)Nc1ccc(CCCNC(C)Cc2ccc(Br)cc2)cc1 (stereo not drawn) [Compound 276]	24	3430	–
CC(Cc1ccc(F)c(F)c1)NCCCc1ccc(Cl)cc1Cl (stereo not drawn) [Compound 269]	61	279	–
CC(Cc1ccc(F)cc1)NCCCc1ccc(Cl)cc1 (stereo not drawn) [Compound 188]	–	500	–
CC(Cc1ccc(F)c(F)c1)NCCCc1ccc2c(c1)C(=O)OC2 (stereo not drawn) [Compound 253]	268	–	–
CC(Cc1ccc(F)c(F)c1)NCCCc1cccc(-c2cccnc2)c1 (stereo not drawn) [Compound 283]	41	182	–
CC(Cc1ccccc1)N(CCCc1ccc(N)cc1)C(=O)OCc1ccccc1 (stereo not drawn) [Compound 291]	–	–	Ki (VMAT2; [3]): 3100 nM
CC(Cc1ccc(F)c(F)c1)NCCCc1ccc(-c2ccnn2C)cc1 (stereo not drawn) [Compound 244]	118	1030	–
CC(Cc1c[nH]c2ccccc12)NCCCc1ccc(F)cc1 (stereo not drawn) [Compound 277]	–	732	Ki (VMAT2; read-out: VMAT2 (rat) Inhibition: Mean Ki, [3H]DA uptake, rat vesicular preparation, mean of n>=3 unless N given): 66 nM
CC(Cc1ccc(F)c(F)c1)NCCCc1cccc(Cl)c1Cl (stereo not drawn) [Compound 271]	42	462	–
